The values that follow come from patent US20150164875A1, “Compound Preparation of Lercanidipine and Atorvastatin” (ZHAOKE PHARMACEUTICAL (GUANGZHOU) COMPANY LIMITED, priority 2012, published 2015).

Counter-ions that a name gives are not always drawn. Like-named read-outs stand apart in the source and are kept apart here.

Test [1] deals with rats with spontaneous hypertension (adult MHS rats) fed with high fat diet. Put plainly: Total serum cholesterol in rats with spontaneous hypertension accompanied by dyslipidemia (Example 4). Type of test: in vivo, rat. To be noted: for total cholesterol: B 0.4 mg/kg, C 0.8 mg/kg, D 0.4 mg/kg+0.8 mg/kg, Mean ± SD; for change in total cholesterol (in words): over 4 weeks of administration, C and D p<0.05, B p>0.05. The protocol: (§1) 5-month-old rats with spontaneous hypertension (adult MHS rats), half males and half females, were fed with high fat diet every day (1.0% of cholesterol, 0.2% of propylthiouracil, 0.5% of sodium cholate, 5.0% of lard, 1.0% of methionine and 92.3% of basal diet) for four weeks; after four weeks, the basal systolic pressure and lipid levels in rats weighing 200-240 g were determined. Rats with hypertension accompanied with dyslipidemia were evenly divided into 4 groups with 12 rates in each group. The four groups were respectively as follows: solvent control group (A), lercanidipine group (lercanidipine hydrochloride, 0.4 mg/kg) (B), atorvastatin group (atorvastatin calcium, 0.8 mg/kg) (C), and lercanidipine/atorvastatin compound group (lercanidipine hydrochloride+atorvastatin calcium, 0.4 mg/kg+0.8 mg/kg) (D). Each group of drugs was formulated with physiological saline, and were administered to rats by gavage once a day for 4 consecutive weeks. Rats were measured 2 hours after administration at the end of each week for the systolic pressure and total serum cholesterol levels and so on.

For test [2] the test system is unchanged. Kind of test: Systolic pressure in rats with spontaneous hypertension accompanied by dyslipidemia (Example 4). Type of test: in vivo, rat. To be noted: for systolic pressure: B 0.4 mg/kg, C 0.8 mg/kg, D 0.4 mg/kg+0.8 mg/kg, Mean ± SD. The protocol:
as §1

Test [3] has as its system SD rats with hypertension accompanied by dyslipidemia. Put plainly: Decrease in systolic pressure in experimental (renal artery clip) rats with hypertension accompanied by dyslipidemia (Example 5). As to conditions: for Degree of antihypertension: gavage once a day, 20 weeks, systolic pressure before minus after administration, Mean ± SD; for systolic pressure as compared with the solvent control group (in words): end of week 20, lercanidipine 0.5 mg/kg, atorvastatin 1.0 mg/kg, compound 0.5 mg/kg+0.5/1.0/2.0 mg/kg, positive control 0.5 mg/kg+1.0 mg/kg. Type of test: in vivo, rat. The procedure: SD rats, weighing 150-180 g, were anaesthetized by intraperitoneal injection with chloral hydrate (320 mg/kg). The abdominal cavity was opened, and the left renal artery was separated and was restricted with 0.2 mm silver clip. At 8-10 weeks following the procedure, rats with systolic pressure ≧140 mmHg were recognized as hypertension rats. Rats with hypertension were administered with vitamin D3 by gavage in a total dosage of 600,000 U/kg in three days, and then were fed with high-fat diet every day (cholesterol 1.0%, propylthiouracil 0.2%, sodium cholate 0.5%, lard 5.0%, methionine 1.0%, basal diet 92.3%). Rats in normal control group were fed with normal diet. After four weeks, systolic pressure was measured in rats, serum total cholesterol (TC) and triglyceride (TG) levels were determined by taking blood from tail vein.
(§2) 140 rats with hypertension accompanied by dyslipidemia were evenly divided into 7 groups with 20 rats in each group according to blood pressure and lipid levels, which were respectively solvent control group, lercanidipine group (lercanidipine hydrochloride, 0.5 mg/kg), atorvastatin group (atorvastatin calcium, 1.0 mg/kg), lercanidipine/atorvastatin compound group 1 (lercanidipine hydrochloride+atorvastatin calcium, 0.5 mg/kg+0.5 mg/kg), lercanidipine/atorvastatin compound group 2 (lercanidipine hydrochloride+atorvastatin calcium, 0.5 mg/kg+1.0 mg/kg), lercanidipine/atorvastatin compound group 3 (lercanidipine hydrochloride+atorvastatin calcium, 0.5 mg/kg+2.0 mg/kg), and positive control group (amlodipine besylate+atorvastatin calcium, 0.5 mg/kg+1.0 mg/kg).
(§3) Another 20 normal rats served as normal control group. Rats with hypertension were continued to be fed with the high-fat diet, and rats in normal group were fed with normal diet. Each group of drugs was formulated with physiological saline, and for the normal control group and solvent control group rats, same volume of physiological saline were administered. Rats were administered by gavage once a day for 20 consecutive weeks. Rats were weighed once a week, and the dosage was adjusted based on the weight. Blood pressures in different time points before and after administration were measured respectively to calculate the magnitude of the decrease in blood pressure (systolic pressure before administration−systolic pressure after administration). Rats were sampled 20 weeks later, and the serum total cholesterol (TC) and triglyceride (TG) levels were determined. The corresponding parameters for each group were represented with the mean±standard deviation (Mean±SD), and t-test was used to compare different groups.

The test system is the same in test [4]. Kind of test: Serum TC and TG in experimental rats with hypertension accompanied by dyslipidemia (Example 5). It is filed as in vivo, rat. As to conditions: for TC / TG: gavage once a day, serum after 20 weeks, Mean ± SD; for TC and TG as compared with the solvent control group (in words): end of week 20, lercanidipine 0.5 mg/kg, atorvastatin 1.0 mg/kg, compound 0.5 mg/kg+0.5/1.0/2.0 mg/kg, positive control 0.5 mg/kg+1.0 mg/kg. The procedure: SD rats, weighing 150-180 g, were anaesthetized by intraperitoneal injection with chloral hydrate (320 mg/kg). The abdominal cavity was opened, and the left renal artery was separated and was restricted with 0.2 mm silver clip. […] Rats in normal control group were fed with normal diet. After four weeks, systolic pressure was measured in rats, serum total cholesterol (TC) and triglyceride (TG) levels were determined by taking blood from tail vein.
as §2, §3

For test [5] the following is noted: cited from earlier work.
Where [6] appears, read: 0 week (basal, before administration).
The mark [7] stands for this setting: 1 week, 2 hours after administration, gavage once a day.
Setting [8] is: 2 weeks, 2 hours after administration, gavage once a day.
[9] abbreviates: 3 weeks, 2 hours after administration, gavage once a day.
Where [10] appears, read: 4 weeks, 2 hours after administration, gavage once a day.

Turning to `COC(=O)C1=C(C)NC(C)=C(C(=O)OC(C)(C)CN(C)CCC(c2ccccc2)c2ccccc2)C1c1cccc([N+](=O)[O-])c1` (stereo not drawn) [Group B, lercanidipine hydrochloride], the total cholesterol in test [1] (setting [6]) turned out to be 8.49 ± 3.01 mmol/L; in test [1] (1 week, gavage once a day), 7.95 ± 2.48 mmol/L; in test [1] (2 weeks, gavage once a day), 7.55 ± 1.94 mmol/L; in test [1] (3 weeks, gavage once a day), 7.28 ± 1.76 mmol/L; in test [1] (4 weeks, gavage once a day) it was 7.01 ± 1.77 mmol/L. The “change in total cholesterol (in words)” value in test [1] is on record as “decreased”. Further, the systolic pressure in test [2] (setting [6]) was 162 ± 4.1 mmHg; in test [2] (setting [7]), 158 ± 3.7 mmHg; in test [2] (setting [8]), 149 ± 5.1 mmHg; in test [2] (setting [9]) it was 138 ± 3.4 mmHg; in test [2] (setting [10]), 135 ± 2.5 mmHg. Also, the “change in systolic pressure (in words)” value in test [2] (over 4 weeks of administration, p<0.01) is given as “decreased to normal blood pressure levels”. In test [3] (dosage 0.5 mg/kg), this compound had a Degree of antihypertension of 35.8 ± 9.65 mmHg. In addition, the “systolic pressure as compared with the solvent control group (in words)” value in test [3] is on record as “significantly decreased”. The same compound came in with a TC in test [4] (dosage 0.5 mg/kg) of 8.27 ± 2.96 mmol/L. This compound also displayed a TG in test [4] (dosage 0.5 mg/kg) of 2.43 ± 1.21 mmol/L. For the same compound, the “TC and TG as compared with the solvent control group (in words)” value in test [4] is “improved”.
Take `CC(C)c1c(C(=O)Nc2ccccc2)c(-c2ccccc2)c(-c2ccc(F)cc2)n1CC[C@@H](O)C[C@@H](O)CC(=O)[O-].CC(C)c1c(C(=O)Nc2ccccc2)c(-c2ccccc2)c(-c2ccc(F)cc2)n1CC[C@@H](O)C[C@@H](O)CC(=O)[O-].[Ca+2]` [Group C, atorvastatin calcium]: the lipid-lowering effect improved in test [5] (comparing with the same dose of lovastatin) is on record as 51%; in test [5] (comparing with the same dose of pravastatin), 46%; in test [5] (comparing with the same dose of simvastatin) it was 38%. Further, the total cholesterol in test [1] (setting [6]) was 8.75 ± 2.65 mmol/L; in test [1] (1 week, gavage once a day), 7.51 ± 1.79 mmol/L; in test [1] (2 weeks, gavage once a day), 6.67 ± 2.03 mmol/L; in test [1] (3 weeks, gavage once a day) it was 6.15 ± 1.47 mmol/L; in test [1] (4 weeks, gavage once a day) it was 5.72 ± 1.48 mmol/L. Besides, the “change in total cholesterol (in words)” value in test [1] was “significant”. In addition, the systolic pressure in test [2] (setting [6]) is on record as 160 ± 5.3 mmHg; in test [2] (setting [7]), 166 ± 2.9 mmHg; in test [2] (setting [8]), 161 ± 5.1 mmHg; in test [2] (setting [9]), 159 ± 4.2 mmHg; in test [2] (setting [10]), 158 ± 3.7 mmHg. The same compound returned a Degree of antihypertension in test [3] (dosage 1.0 mg/kg) of 2.4 ± 1.98 mmHg. In test [3], the “systolic pressure as compared with the solvent control group (in words)” value is reported as “improved”. For the same compound, in test [4] (dosage 1.0 mg/kg), the TC amounted to 5.27 ± 4.03 mmol/L. Besides, the TG in test [4] (dosage 1.0 mg/kg) is reported as 1.49 ± 0.74 mmol/L. Also, in test [4], the “TC and TG as compared with the solvent control group (in words)” value was “significantly decreased”.
